Several values for one entry are separate records, joined by “and”; a condition that tells them apart may be missing. Identical values can stand only once.
Experiments:
[1] = tested on: nalidixic acid-resistant Salmonella Enterica serovar Typhimurium; assay: Wing wash model: Salmonella counts in rinsate of experimentally contaminated broiler wings; format: cell-based
Experimental: As a non-limiting example, the efficacy of Sx on the reduction of nalidixic acid-resistant Salmonella spp. on experimentally contaminated broiler carcasses (using a wing wash model) was tested. Sx was tested at 100 ppm and 200 ppm, with or without lecithin and was compared with an untreated negative control group and peracetic Acid (PAA) at 200 ppm as a commercial comparator. […] Almost 0.6 to 3.0 log reduction has been observed in previous iterations. During those studies, the effectiveness of Sx was studied at different time intervals and fixed time interval. […] Whereas, based on literature and food safety inspection services (USDA) directive 7120.1, PAA has been recommended with the dose range of 50 ppm to 2000 ppm. Under field conditions, most of the establishments use 200 ppm as a whole carcass rinse. Therefore, in this iteration, Sx was compared with PAA at 200 ppm level. In this study, Sx was tested at 1.25% and 2.5% level which are equivalent to 100 ppm and 200 ppm of propionic acid concentration. Lecithin was added to the Sx solution at the rate of 0.02%. Lecithin is believed to enhance the cell wall penetration of propionic acid and isoamyl hexanoate leading to better antimicrobial activity.
For this study, a WHIRL-PAK® bag containing one pair of chicken wings was the experimental unit. On approximately day 47 of the broilers age, approximately 54 broilers were euthanized by severing the jugular vein after euthanization. The carcass was thoroughly washed using hot water. The feathers were removed using a mechanical plucker. The wings were separated from the whole carcass and preserved in a cooler containing ice. Each treatment group was represented by nine sample bags (replicates) containing one pair of wings. Three sample bags from each treatment group were pooled together and identified as first, second and third set as shown in Table 3.
To start with, eighteen pairs of wings were brought to the hood and sprayed with Salmonella typhimurium (Nalidixic Acid Resistant [NAR]) inoculum at the rate of 10 mL per pair. The carcasses were allowed to dry for 15 minutes. Following drying, eighteen pairs of wings were inserted into WHIRL-PAK bags at the rate of one pair per WHIRL-PAK bag. T1 bags were added with non-medicated, sterilized reverse osmosis (SRO) water at the rate of one liter per bag. T2-T6 bags were added with respective medicated, SRO water at the rate of one liter per bag. All the bags were incubated for 15 mins in a cooler containing ice cubes. After 15 minutes, the carcass in each bag was removed from the SRO water bag and inserted into a fresh WHIRL-PAK bag.
Approximately 100 mL of buffered peptone water was added into each bag and agitated for one minute. […]

[2] = tested on: range of target microorganisms; conditions: both in gas and MIC assays; cited from earlier work

| SMILES | Salmonella count (MPN) ([1]; Salmonella count per mL of wing wash rinsate after 15 mins incubation in medicated SRO water, mean of 9 replicates, concentration in label) | MPN (Actual numbers) ([1]; Salmonella count per mL of wing wash rinsate after 15 mins incubation, concentration in label) | % Reduction ([1]; decrease of Salmonella count compared to untreated control, 15 mins incubation, P<0.05) | Log Reduction ([1]; overall reduction of salmonella count compared to untreated control, 15 mins incubation) | Bioactivity by itself [2] |
| --- | --- | --- | --- | --- | --- |
| CC(=O)OO [PAA 200 ppm, peracetic Acid] | 6.51E+05±5.68E+05 cfu/mL and 6.51E+05 cfu/mL | 650,694 | 84% and 84.55% | 0.77 Log |  |
| CC(C)C(=O)O [isobutyric acid] |  |  |  |  | some limited bioactivity |
